≈ marks a conversion by molar mass, not a printed value.
Experiments:
Assay in all cases: MIC, microdilution broth method (NCCLS)
Format in all cases: cell-based
Conditions in all cases: 35° C., 16-20 hours
S. aureus ATCC29213 = system: S. aureus ATCC29213
Experimental: (§1) Minimal inhibitory concentration (MIC) has been an indicator of in vitro antibacterial activity widely used in the art. The in vitro antimicrobial activity of the compounds was determined by the microdilution broth method following the test method from the National Committee for Clinical Laboratory Standards (NCCLS). This method is described in the NCCLS Document M7-A4, Vol.17, No.2, “Methods for Dilution Antimicrobial Susceptibility Test for Bacteria that Grow Aerobically—Fourth Edition”, which is incorporated herein by reference.
(§2) In this method two-fold serial dilutions of drug in cation adjusted Mueller-Hinton broth are added to wells in microdilution trays. The test organisms are prepared by adjusting the turbidity of actively growing broth cultures so that the final concentration of test organism after it is added to the wells is approximately 5×10^4 CFU/well.
(§3) Following inoculation of the microdilution trays, the trays are incubated at 35° C. for 16-20 hours and then read. […] The amount of growth in the wells containing the test compound is compared with the amount of growth in the growth-control wells (no test compound) used in each tray. As set forth in Table 1, compounds of the present invention were tested against a variety of Gram positive and Gram negative pathogenic bacteria resulting in a range of activities depending on the organism tested.

E. faecalis ATCC29212 = system: E. faecalis ATCC29212
Experimental: as §1, §2, §3

H. influenzae ATCC49247 = system: H. influenzae ATCC49247
Experimental: as §1, §2, §3

S. pneumoniae ATCC49619 = system: S. pneumoniae ATCC49619
Experimental: as §1, §2, §3

| Compound | MIC (B: S. aureus ATCC29213) (S. aureus ATCC29213) [µg/mL] | MIC (C: E. faecalis ATCC29212) (E. faecalis ATCC29212) [µg/mL] | MIC (E: H. influenzae ATCC49247) (H. influenzae ATCC49247) [µg/mL] | MIC (D: S. pneumoniae ATCC49619) (S. pneumoniae ATCC49619) |
| --- | --- | --- | --- | --- |
| CCC1OC(=O)C(C)C(=O)C(C)C(OC2OC(C)CC(N(C)C)C2O)C(C)(OC(=O)OCCCn2cnc3ccccc32)CC(C)C(=O)C(C)C2NC(=O)OC12C (stereo not drawn) [Compound 159] | 0.25 (≈ 0.312 µM) | 0.12 (≈ 0.15 µM) | 1 (≈ 1.25 µM) | 0.03 µg/mL (≈ 0.0375 µM) |
| CCC1OC(=O)C(C)C(=O)C(C)C(OC2OC(C)CC(N(C)C)C2O)C(C)(OC(=O)OCC=Cc2ccc(-n3cncn3)c(F)c2)CC(C)C(=O)C(C)C2NC(=O)OC12C (stereo not drawn) [Compound 31] | 0.12 (≈ 0.142 µM) | 0.06 (≈ 0.0711 µM) | 1 (≈ 1.18 µM) | 0.03 µg/mL (≈ 0.0355 µM) |
| CC[C@H]1OC(=O)[C@H](C)C(=O)[C@H](C)[C@@H](O[C@@H]2O[C@H](C)C[C@H](N(C)C)[C@H]2O)[C@](C)(OC(=O)NNC(=O)OCc2ccccc2)C[C@@H](C)C(=O)[C@H](C)[C@H]2NC(=O)O[C@@]21C [Compound 814] | 8 (≈ 10.1 µM) | 0.5 (≈ 0.632 µM) | 8 (≈ 10.1 µM) | 0.12 µg/mL (≈ 0.152 µM) |
| CC[C@H]1OC(=O)[C@H](C)C(=O)[C@H](C)[C@@H](O[C@@H]2O[C@H](C)C[C@H](N(C)C)[C@H]2O)[C@](C)(OC(=O)Nn2ccc(-c3ccc(-c4ncccn4)cc3)c2)C[C@@H](C)C(=O)[C@H](C)[C@H]2NC(=O)O[C@@]21C [Compound 824] | 2 (≈ 2.32 µM) | 1 (≈ 1.16 µM) | 16 (≈ 18.6 µM) | 0.12 µg/mL (≈ 0.139 µM) |
| CCC1OC(=O)C(C)C(=O)C(C)C(OC2OC(C)CC(N(C)C)C2O)C(C)(OC(=O)OCC(F)=Cc2ccc(-c3cccnn3)cc2)CC(C)C(=O)C(C)C2NC(=O)OC12C (stereo not drawn) [Compound 168] | 0.12 (≈ 0.14 µM) | 0.06 (≈ 0.0702 µM) | 0.5 (≈ 0.585 µM) | ≦0.015 μg/mL |
| CC[C@H]1OC(=O)[C@H](C)C(=O)[C@H](C)[C@@H](O[C@@H]2O[C@H](C)C[C@H](N(C)C)[C@H]2O)[C@](C)(OC(=O)SCCc2ccc(-n3cncn3)cc2)C[C@@H](C)C(=O)[C@H](C)[C@H]2NC(=O)O[C@@]21C [Compound 836] | 0.25 (≈ 0.301 µM) | 0.12 (≈ 0.145 µM) | 1 (≈ 1.2 µM) | 0.03 µg/mL (≈ 0.0361 µM) |
| CC[C@H]1OC(=O)[C@H](C)C(=O)[C@H](C)[C@@H](O[C@@H]2O[C@H](C)C[C@H](N(C)C)[C@H]2O)[C@](C)(OC(=O)SCCc2ccc(-c3ncccn3)cc2)C[C@@H](C)C(=O)[C@H](C)[C@H]2NC(=O)O[C@@]21C [Compound 835] | 0.5 (≈ 0.595 µM) | 0.12 (≈ 0.143 µM) | 4 (≈ 4.76 µM) | 0.03 µg/mL (≈ 0.0357 µM) |
| CCC1OC(=O)C(C)C(=O)C(C)C(OC2OC(C)CC(N(C)C)C2O)C(C)(OC(=O)NOCC#Cc2ccc(-c3cnccn3)cc2)CC(C)C(=O)C(C)C2NC(=O)OC12C (stereo not drawn) [Compound 603] | 0.25 (≈ 0.294 µM) | 0.12 (≈ 0.141 µM) | 2 (≈ 2.35 µM) | 0.03 µg/mL (≈ 0.0353 µM) |
| CCC1OC(=O)C(C)C(=O)C(C)C(OC2OC(C)CC(N(C)C)C2O)C(C)(OC(=O)OCC=Cc2ccc(-c3nnco3)cc2)CC(C)C(=O)C(C)C2NC(=O)OC12C (stereo not drawn) [Compound 52] | 0.12 (≈ 0.145 µM) | 0.06 (≈ 0.0726 µM) | 1 (≈ 1.21 µM) | ≦0.015 μg/mL |
